Experimental findings from PubChem BioAssay AID1259407 (Chemical Carcinogenesis Research Information System (CCRIS), 2018) are described below.

Activity calls are given as the source filed them. The rule behind the calls is not given here.

The subject of this data set is CCRIS mutagenicity, Ames/micronucleus/aberration tests. The data set can be described thus: CCRIS mutagenicity studies.
[1] abbreviates: Test System: AMES SALMONELLA TYPHIMURIUM, Strain/Indicator: TA98, Metabolic Activation: NONE, Method: STANDARD PLATE.
The mark [2] stands for this setting: Test System: AMES SALMONELLA TYPHIMURIUM, Strain/Indicator: TA98, Metabolic Activation: RAT, LIVER, S-9, AROCLOR 1254, Method: STANDARD PLATE.
The mark [3] stands for this setting: Test System: AMES SALMONELLA TYPHIMURIUM, Strain/Indicator: TA100, Metabolic Activation: NONE, Method: PREINCUBATION
Setting [4] is: Test System: AMES SALMONELLA TYPHIMURIUM, Strain/Indicator: TA100, Metabolic Activation: NONE, Method: STANDARD PLATE.
Where [5] appears, read: Test System: AMES SALMONELLA TYPHIMURIUM, Strain/Indicator: TA100, Metabolic Activation: RAT, LIVER, S-9, AROCLOR 1254, Method: STANDARD PLATE.
Where [6] appears, read: Test System: AMES SALMONELLA TYPHIMURIUM, Strain/Indicator: TA1535, Metabolic Activation: RAT, LIVER, S-9, AROCLOR 1254, Method: STANDARD PLATE.
Setting [7] is: Test System: AMES SALMONELLA TYPHIMURIUM, Strain/Indicator: TA1538, Metabolic Activation: RAT, LIVER, S-9, AROCLOR 1254, Method: STANDARD PLATE.

For `c1ccc2c(c1)ccc1ccccc12`, the mutagenic call was “inactive; negative” (Test System: AMES SALMONELLA TYPHIMURIUM, Strain/Indicator: TA97, Metabolic Activation: HAMSTER, LIVER, S-9, AROCLOR 1254 (10%), Method: PREINCUBATION); “inactive; negative” (Test System: AMES SALMONELLA TYPHIMURIUM, Strain/Indicator: TA97, Metabolic Activation: NONE, Method: PREINCUBATION); “inactive; negative” (Test System: AMES SALMONELLA TYPHIMURIUM, Strain/Indicator: TA97, Metabolic Activation: NONE, Method: STANDARD PLATE); “inactive; negative” (Test System: AMES SALMONELLA TYPHIMURIUM, Strain/Indicator: TA97, Metabolic Activation: RAT, LIVER, S-9, AROCLOR 1254 (10%), Method: PREINCUBATION); “active; positive” (Test System: AMES SALMONELLA TYPHIMURIUM, Strain/Indicator: TA97, Metabolic Activation: RAT, LIVER, S-9, PCB, Method: STANDARD PLATE); “inactive; negative” (Test System: AMES SALMONELLA TYPHIMURIUM, Strain/Indicator: TA98, Metabolic Activation: HAMSTER, LIVER, S-9, AROCLOR 1254 (10%), Method: PREINCUBATION). Further, the mutagenic call runs as follows: (Test System: AMES SALMONELLA TYPHIMURIUM, Strain/Indicator: TA98, Metabolic Activation: NONE, Method: PREINCUBATION) “inactive; negative”; under setting [1], “inactive; negative”; (Test System: AMES SALMONELLA TYPHIMURIUM, Strain/Indicator: TA98, Metabolic Activation: RAT, LIVER, S-9, AROCLOR 1254 (10%), Method: PREINCUBATION) “inactive; negative”; under setting [2], “inactive; negative”; (Test System: AMES SALMONELLA TYPHIMURIUM, Strain/Indicator: TA98, Metabolic Activation: RAT, LIVER, S-9, PCB, Method: STANDARD PLATE) “inactive; negative”; (Test System: AMES SALMONELLA TYPHIMURIUM, Strain/Indicator: TA100, Metabolic Activation: HAMSTER, LIVER, S-9, AROCLOR 1254 (5 OR 30%), Method: PREINCUBATION) “inactive; negative”. Moreover, the mutagenic call was “inactive; negative” (Test System: AMES SALMONELLA TYPHIMURIUM, Strain/Indicator: TA100, Metabolic Activation: HAMSTER, LIVER, S-9, AROCLOR 1254 (10%), Method: PREINCUBATION); “inactive; negative” under setting [3]; “inactive; negative” under setting [4]; “inactive; negative” (Test System: AMES SALMONELLA TYPHIMURIUM, Strain/Indicator: TA100, Metabolic Activation: RAT, LIVER, S-9, AROCLOR 1254 (5%), Method: PREINCUBATION); “inactive; negative” (Test System: AMES SALMONELLA TYPHIMURIUM, Strain/Indicator: TA100, Metabolic Activation: RAT, LIVER, S-9, AROCLOR 1254 (10%), Method: PREINCUBATION); “active; positive” under setting [5]. Also, the mutagenic call (Test System: AMES SALMONELLA TYPHIMURIUM, Strain/Indicator: TA100, Metabolic Activation: RAT, LIVER, S-9, PCB, Method: STANDARD PLATE) is “inactive; negative”; the mutagenic call (Test System: AMES SALMONELLA TYPHIMURIUM, Strain/Indicator: TA1535, Metabolic Activation: HAMSTER, LIVER, S-9, AROCLOR 1254 (10%), Method: PREINCUBATION) was “inactive; negative”; the mutagenic call (Test System: AMES SALMONELLA TYPHIMURIUM, Strain/Indicator: TA1535, Metabolic Activation: NONE, Method: PREINCUBATION) is “inactive; negative”; the mutagenic call (Test System: AMES SALMONELLA TYPHIMURIUM, Strain/Indicator: TA1535, Metabolic Activation: RAT, LIVER, S-9, AROCLOR 1254 (10%), Method: PREINCUBATION) is “inactive; negative”; the mutagenic call under setting [6] is “active; positive”; the mutagenic call (Test System: E. COLI, Strain/Indicator: WP2 UVRA, Metabolic Activation: HAMSTER, LIVER, S-9, AROCLOR 1254, Method: STANDARD PLATE) is “inactive; negative”. For the same compound, the mutagenic call reads like this: (Test System: E. COLI, Strain/Indicator: WP2 UVRA, Metabolic Activation: HAMSTER, LIVER, S-9, Method: STANDARD PLATE) “inactive; negative”; (Test System: E. COLI, Strain/Indicator: WP2 UVRA, Metabolic Activation: MOUSE, LIVER, S-9, AROCLOR 1254, Method: STANDARD PLATE) “inactive; negative”; (Test System: E. COLI, Strain/Indicator: WP2 UVRA, Metabolic Activation: MOUSE, LIVER, S-9, Method: STANDARD PLATE) “inactive; negative”; (Test System: E. COLI, Strain/Indicator: WP2 UVRA, Metabolic Activation: NONE, Method: STANDARD PLATE) “inactive; negative”; (Test System: E. COLI, Strain/Indicator: WP2 UVRA, Metabolic Activation: RAT, LIVER, S-9, AROCLOR 1254, Method: STANDARD PLATE) “inactive; negative”; (Test System: E. COLI, Strain/Indicator: WP2 UVRA, Metabolic Activation: RAT, LIVER, S-9, Method: STANDARD PLATE) “inactive; negative”. The mutagenic call (Test System: UDS RAT HEPATOCYTES, Strain/Indicator: BROMODEOXYURIDINE INCORP, Metabolic Activation: NONE, Method: FLOW CYTOMETRIC ANALYSIS) was “inactive; negative”.
Turning to `O=C(COc1ccc(Cl)cc1Cl)N[C@@H](Cc1c[nH]c2ccccc12)C(=O)O`, the mutagenic call (Test System: AMES SALMONELLA TYPHIMURIUM, Strain/Indicator: TA97, Metabolic Activation: RAT, LIVER, S-9, AROCLOR 1254, Method: STANDARD PLATE) is “inactive; negative”; the mutagenic call (Test System: AMES SALMONELLA TYPHIMURIUM, Strain/Indicator: TA97, Metabolic Activation: WOODCHUCK, LIVER, S-9, 3-METHYLCHOLANTHRENE, Method: STANDARD PLATE) is “inactive; negative”; the mutagenic call under setting [2] is “inactive; negative”; the mutagenic call (Test System: AMES SALMONELLA TYPHIMURIUM, Strain/Indicator: TA98, Metabolic Activation: WOODCHUCK, LIVER, S-9, 3-METHYLCHOLANTHRENE, Method: STANDARD PLATE) was “inactive; negative”; the mutagenic call under setting [5] was “inactive; negative”; the mutagenic call (Test System: AMES SALMONELLA TYPHIMURIUM, Strain/Indicator: TA100, Metabolic Activation: WOODCHUCK, LIVER, S-9, 3-METHYLCHOLANTHRENE, Method: STANDARD PLATE) is “inactive; negative”. Further, the mutagenic call reads like this: under setting [6], “inactive; negative”; (Test System: AMES SALMONELLA TYPHIMURIUM, Strain/Indicator: TA1535, Metabolic Activation: WOODCHUCK, LIVER, S-9, 3-METHYLCHOLANTHRENE, Method: STANDARD PLATE) “inactive; negative”; under setting [7], “inactive; negative”; (Test System: AMES SALMONELLA TYPHIMURIUM, Strain/Indicator: TA1538, Metabolic Activation: WOODCHUCK, LIVER, S-9, 3-METHYLCHOLANTHRENE, Method: STANDARD PLATE) “inactive; negative”.
For `NC(=O)CC1CO1` (configuration not stated), the mutagenic call by setting is: under setting [3], “active; positive”; under setting [4], “active; positive”; (Test System: AMES SALMONELLA TYPHIMURIUM, Strain/Indicator: TA100, Metabolic Activation: RAT, LIVER, S-9, AROCLOR 1254, Method: PREINCUBATION) “active; positive”; under setting [5], “active; positive”.
For `Cc1ccc(N)cc1Cl`, the mutagenic call under setting [1] was “inactive; negative”; the mutagenic call under setting [2] is “inactive; negative”; the mutagenic call under setting [4] is “inactive; negative”; the mutagenic call under setting [5] is “inactive; negative”; the mutagenic call (Test System: AMES SALMONELLA TYPHIMURIUM, Strain/Indicator: TA1535, Metabolic Activation: NONE, Method: STANDARD PLATE) is “inactive; negative”; the mutagenic call under setting [6] was “inactive; negative”. Further, the mutagenic call is, setting by setting: (Test System: AMES SALMONELLA TYPHIMURIUM, Strain/Indicator: TA1537, Metabolic Activation: NONE, Method: STANDARD PLATE) “inactive; negative”; (Test System: AMES SALMONELLA TYPHIMURIUM, Strain/Indicator: TA1537, Metabolic Activation: RAT, LIVER, S-9, AROCLOR 1254, Method: STANDARD PLATE) “inactive; negative”; (Test System: AMES SALMONELLA TYPHIMURIUM, Strain/Indicator: TA1538, Metabolic Activation: NONE, Method: STANDARD PLATE) “inactive; negative”; under setting [7], “inactive; negative”; (Test System: CHINESE HAMSTER OVARY, Strain/Indicator: CHO-K1-BH4 (HPRT)/6-THIOGUANINE, Metabolic Activation: NONE) “inactive; negative”; (Test System: CHINESE HAMSTER OVARY, Strain/Indicator: CHO-K1-BH4 (HPRT)/6-THIOGUANINE, Metabolic Activation: RAT, LIVER, S-9, AROCLOR 1254) “inactive; negative”.
